Values of other authors, collected in patent US11033601B2, “Selective inhibition of V1b for treating fatty liver” (The Regents of the University of Colorado, priority 2017, dated 2021).

Biological target: V2 receptors (Homo sapiens, UniProt P30518)
Sequence (P30518 whole entry): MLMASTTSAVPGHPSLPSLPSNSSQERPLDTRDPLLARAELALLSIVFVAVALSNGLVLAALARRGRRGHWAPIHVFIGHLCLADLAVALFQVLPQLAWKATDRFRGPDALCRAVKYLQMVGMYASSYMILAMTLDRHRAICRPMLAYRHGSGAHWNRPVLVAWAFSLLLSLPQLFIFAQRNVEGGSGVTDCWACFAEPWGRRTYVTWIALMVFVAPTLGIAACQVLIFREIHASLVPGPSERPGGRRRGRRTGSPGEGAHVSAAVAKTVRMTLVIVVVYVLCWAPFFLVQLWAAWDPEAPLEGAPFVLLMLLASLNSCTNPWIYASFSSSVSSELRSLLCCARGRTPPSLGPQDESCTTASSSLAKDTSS

For COc1ccc(S(=O)(=O)N2C(=O)[C@@](c3ccccc3OC)(N3C[C@H](O)C[C@H]3C(=O)N(C)C)c3cc(Cl)ccc32)c(OC)c1 [Nelivaptan], the “effects on V2 receptors” value is given as “little effects”.
